Structures can show the parent of a compound that is named as a salt. Where two headings read alike, the source gives them in different places.
Assays:
[1] = Bulk density comparison; assay type: physicochemical
Text: (§1) The hydrate crystal and the amorphous substance and the crystal form of patent CN104876841B were compared in terms of bulk density, solubility, ect, as shown in the following table. Table 2 Physicochemical properties comparison of the valnemulin hydrochloride hydrate, the amorphous substance and the Comparative Example

[2] = Influencing factor (stability) experiments on crystal forms under temperature and humidity; assay type: physicochemical; settings: for content before placement: before placement (baseline of the stability study)
Method: Conditions for purity detection by High Performance Liquid Chromatography (HPLC): octadecylsilane-bonded silica gel was used as filler (150 mm×4.6 mm, 3 µm); mobile phase A was phosphate buffer (pH 2.5); mobile phase B was phosphate buffer (pH 2.5)-acetonitrile (25:75); the flow rate was 1.5 ml per minute; the column temperature was 50 °C; and the detection wavelength was 200 nm. Linear gradient elution was performed according to the following table.
Table 1 Comparative study on stability of valnemulin hydrochloride hydrate, amorphous substance and the comparative crystal form

[3] = Loss on granulation of aqueous solutions of amorphous product; assay type: physicochemical; settings: granulated at 75 °C
Text: For solid drugs, different solid forms will have an important impact on physical and chemical properties such as stability, solubility, dissolution rate, bulk density and fluidity, resulting in different efficacy and bioavailability during use. Therefore, for solid pharmaceutical products, the development of different solid forms is more conducive to choosing a suitable crystal form according to the characteristics of the pharmaceutical preparation. For valnemulin hydrochloride products, compared with crystalline products, the amorphous products have problems such as poor stability, easy hygroscopicity, poor appearance, poor fluidity, and difficult storage. At the same time, aqueous solutions of amorphous valnemulin hydrochloride products are unstable during preparation process. Experiments have shown that 11.6% loss is caused when granulated at 75 °C. Therefore, there is an urgent need to develop a stable valnemulin hydrochloride crystal product to meet market demand for veterinary drugs. […] There are very few reports on the crystal form of valnemulin hydrochloride and preparation method thereof.

[4] = Hygroscopicity experiments; assay type: physicochemical
Text: as §1, with “Table 1 Comparative study on stability of valnemulin hydrochloride hydrate, amorphous substance and the comparative crystal form The” for “The”

[5] = reported for CN108892629A; cited from earlier work
[6] = 25 °C, 90% relative humidity, placed for 30 days, hydrochloride
[7] = 40 °C, 75% relative humidity, placed for 30 days, hydrochloride
[8] = 60 °C, 75% relative humidity, placed for 30 days, hydrochloride
[9] = 60 °C, placed in normal humidity for 30 days, hydrochloride
[10] = compared with the original amorphous product
[11] = 25 °C, 90% relative humidity, placed for 30 days, listed as The crystal form of valnemulin hydrochloride hydrate (Example 1), hydrochloride hydrate
[12] = 40 °C, 75% relative humidity, placed for 30 days
[13] = 40 °C, 75% relative humidity, placed for 30 days, listed as The crystal form of valnemulin hydrochloride hydrate (Example 1), hydrochloride hydrate
[14] = 60 °C, 75% relative humidity, placed for 30 days
[15] = 60 °C, 75% relative humidity, placed for 30 days, listed as The crystal form of valnemulin hydrochloride hydrate (Example 1), hydrochloride hydrate
[16] = 60 °C, placed in normal humidity for 30 days, listed as The crystal form of valnemulin hydrochloride hydrate (Example 1), hydrochloride hydrate

Structure (SMILES): C=C[C@]1(C)C[C@@H](OC(=O)CSC(C)(C)CNC(=O)[C@H](N)C(C)C)[C@]2(C)[C@H](C)CC[C@]3(CCC(=O)[C@H]32)[C@@H](C)[C@@H]1O [The amorphous substance of valnemulin hydrochloride]
- Bulk density ([1]; hydrochloride): 0.338 g/mL
- Appearance change [2, 6]: Yellow transparent viscous solid
- Content after placement (%) [2, 6]: 94.56%
- Appearance change [2, 7]: Yellow transparent viscous solid
- Content after placement (%) [2, 7]: 90.82%
- Appearance change [2, 8]: Yellow
- Content after placement (%) [2, 8]: 86.12%
- Appearance change [2, 9]: Yellow solid
- Content after placement (%) [2, 9]: 89.18%
- content before placement ([2]; listed as valnemulin hydrochloride amorphous substance, hydrochloride): 97.50%
- loss when granulated [3]: 11.6%
- With or without hygroscopicity [4, 6]: Severe hygroscopic ity
- With or without hygroscopicity [4, 7]: Severe hygroscopic ity
- With or without hygroscopicity [4, 8]: Severe hygroscopic ity
- With or without hygroscopicity [4, 9]: Hygroscopi city
- hygroscopicity ([4]; Table 2, hydrochloride): 8.86%
- hygroscopicity ([4]; summary in words of Table 1, hydrochloride): absorbed moisture severely

Structure (SMILES): C=C[C@]1(C)C[C@@H](OC(=O)CSC(C)(C)CNC(=O)[C@H](N)C(C)C)[C@]2(C)[C@H](C)CC[C@]3(CCC(=O)[C@H]32)[C@@H](C)[C@@H]1O [Example 1, valnemulin hydrochloride hydrate]
- Bulk density [1, 10]: large bulk density
- Bulk density ([1]; listed as The crystal form of valnemulin hydrochloride hydrate (Example 1), hydrochloride hydrate): 0.596 g/mL
- Appearance change [2, 11]: White solid
- Content after placement (%) [2, 11]: 99.23%
- Crystal form change [2, 11]: No change
- Crystal form change [2, 12]: No change
- Appearance change [2, 13]: White solid
- Content after placement (%) [2, 13]: 99.20%
- Crystal form change [2, 14]: No change
- Appearance change [2, 15]: White solid
- Content after placement (%) [2, 15]: 98.78%
- Appearance change [2, 16]: White solid
- Content after placement (%) [2, 16]: 98.47%
- Crystal form change [2, 16]: No
- content before placement ([2]; hydrochloride hydrate): 99.25%
- stability [2, 10]: enhanced stability
- stability ([2]; summary in words of Table 1): stable
- With or without hygroscopicity [4, 11]: Without hygroscopic ity
- With or without hygroscopicity [4, 13]: Without hygroscopic ity
- With or without hygroscopicity [4, 15]: Without hygroscopic ity
- With or without hygroscopicity [4, 16]: Without
- hygroscopicity ([4]; Table 2, listed as The crystal form of valnemulin hydrochloride hydrate (Example 1), hydrochloride hydrate): 0%
- hygroscopicity [4, 10]: no hygroscopicity

Structure (SMILES): C=C[C@]1(C)C[C@@H](OC(=O)CSC(C)(C)CNC(=O)[C@H](N)C(C)C)[C@]2(C)[C@H](C)CC[C@]3(CCC(=O)[C@H]32)[C@@H](C)[C@@H]1O [The crystal form of Comparative Example, valnemulin hydrochloride]
- Bulk density ([1]; hydrochloride): 0.636 g/mL
- Appearance change [2, 6]: White solid
- Content after placement (%) [2, 6]: 99.21%
- Crystal form change [2, 6]: Slight change
- Crystal form change [2, 12]: No change
- Appearance change [2, 7]: White solid
- Content after placement (%) [2, 7]: 99.18%
- Crystal form change [2, 14]: No change
- Appearance change [2, 8]: Light yellow solid
- Content after placement (%) [2, 8]: 98.69%
- Appearance change [2, 9]: Light yellow solid
- Content after placement (%) [2, 9]: 98.39%
- Crystal form change [2, 9]: No change
- With or without hygroscopicity [4, 6]: Slightly
- With or without hygroscopicity [4, 7]: Slightly
- With or without hygroscopicity [4, 8]: Slightly
- With or without hygroscopicity [4, 9]: Slightly
- hygroscopicity ([4]; Table 2, hydrochloride): 1.015%
- hygroscopicity ([4]; summary in words of Table 1, listed as The crystal form of patent CN104876841B, hydrochloride): slightly hygroscopic

Structure (SMILES): C=C[C@]1(C)C[C@@H](OC(=O)CSC(C)(C)CNC(=O)[C@H](N)C(C)C)[C@]2(C)[C@H](C)CC[C@]3(CCC(=O)[C@H]32)[C@@H](C)[C@@H]1O [solvent-free compound, valnemulin hydrochloride]
- Bulk density [5]: 0.305 g/mL

Reference: patent EP3929178B1, “CRYSTAL FORM OF VALNEMULIN HYDROCHLORIDE HYDRATE, PREPARATION METHOD THEREFOR, AND PHARMACEUTICAL COMPOSITION CONTAINING CRYSTAL FORM” (Hubei Longxiang Pharmaceutical Co., Ltd., priority 2019, dated 2020)
